Values after ≈ are worked out from the molar mass of the structure shown.
What was measured:
[1] = target: T1, PBP3 from Acinetobacter baumannii (ATCC 19606) (Acinetobacter baumannii, UniProt A0ABX6CK25); assay: Bocillin-FL fluorescence polarization competition binding, A. baumannii PBP3; details: fluorescence polarization competition binding assay using Bocillin-FL; read-out: A. baumannii PBP3 Potency
T1 sequence (A0ABX6CK25 64-610): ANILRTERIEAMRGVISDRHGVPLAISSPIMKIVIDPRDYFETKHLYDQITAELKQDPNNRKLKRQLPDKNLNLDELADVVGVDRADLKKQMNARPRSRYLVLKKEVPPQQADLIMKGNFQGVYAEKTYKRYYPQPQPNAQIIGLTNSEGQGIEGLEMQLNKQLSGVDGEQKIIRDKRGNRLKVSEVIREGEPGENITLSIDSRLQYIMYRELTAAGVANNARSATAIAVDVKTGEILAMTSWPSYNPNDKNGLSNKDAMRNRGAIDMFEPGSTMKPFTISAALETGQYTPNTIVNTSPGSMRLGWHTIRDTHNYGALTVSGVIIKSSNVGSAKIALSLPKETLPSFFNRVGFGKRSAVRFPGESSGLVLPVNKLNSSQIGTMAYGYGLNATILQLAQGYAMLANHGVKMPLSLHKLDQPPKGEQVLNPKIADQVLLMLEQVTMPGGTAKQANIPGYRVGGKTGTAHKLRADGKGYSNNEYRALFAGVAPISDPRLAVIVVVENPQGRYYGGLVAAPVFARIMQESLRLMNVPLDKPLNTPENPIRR
Summary of the method: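 Purified PBP was preincubated with inhibitor (E. coli PBP3 1.5 μM, 30 min; P. aeruginosa PBP3 0.75 μM, A. baumannii PBP3 0.2 μM and PBP1a 1 μM, 15 min), then Bocillin-FL (0.1 μM; 0.05 μM for PBP1a) added and FP read up to 60 min. EC50 = 50% loss of bound probe.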

P. aeruginosa ATCC 27853 = assay: microbe, parasite or virus in culture; assay type: cell-based; details: Pseudomonas aeruginosa, ATCC27853, read-out: Minimum inhibitory concentration, P. aeruginosa ATCC 27853
P. aeruginosa CDC-0095 = assay: microbe, parasite or virus in culture; assay type: cell-based; details: Pseudomonas aeruginosa, CDC0095, read-out: Minimum inhibitory concentration, P. aeruginosa CDC-0095
A. baumannii 1258916 = assay: microbe, parasite or virus in culture; assay type: cell-based, Acinetobacter baumannii; details: Acinetobacter baumannii, 1258916, read-out: MIC, A. baumannii 1258916
A. baumannii CDC-0033 = assay: microbe, parasite or virus in culture; assay type: cell-based; details: Acinetobacter baumannii, CDC0033, read-out: MIC, A. baumannii CDC-0033
A. baumannii CDC-0036 = assay: microbe, parasite or virus in culture; assay type: cell-based; details: Acinetobacter baumannii, CDC0036, read-out: MIC, A. baumannii CDC-0036
[2] = test system: B. thailandensis ATCC 700388; assay: microbe, parasite or virus in culture; assay type: cell-based; details: Burkholderia thailandensis, ATCC700388, read-out: Minimum inhibitory concentration (MIC), B. thailandensis ATCC 700388
P. aeruginosa CDC-0110 = assay: microbe, parasite or virus in culture; assay type: cell-based; details: Pseudomonas aeruginosa, CDC0110, read-out: Minimum inhibitory concentration, P. aeruginosa CDC-0110
N. gonorrhoeae MS11 = assay: Liquid broth MIC in Fastidious broth; details: Neisseria gonorrhoeae, MS11, read-out: Minimum Inhibitory Concentration (MIC), N. gonorrhoeae MS11
Description: Additional antibacterial testing of the series was performed in 8 reference strains of N. gonorrhoeae (ATCC 49226, FA1090, MS 11, WHO G, WHO L, WHO M, WHO K, WHO X, WHO Z, WHO Q, CDC-0197). ATCC 49226, FA1090, MS11, WHO G, WHO L, and WHO M produce wild type or wild-type like PBP2. WHO K, WHO X, WHO Z, WHO Q, and CDC-0197 produce mosaic PBP2. Liquid broth-based assays were used for antibacterial testing of PBP inhibitors in Neisseria gonorrhoeae. Briefly, cryo-preserved bacterial cultures of clinical strains were streaked for isolation on Chocolate Agar (72 g/L (2×) GC Agar Base (BD #228950) and 2% (2×) Hemoglobin was autoclaved at 121° C. for 20 minutes to sterilize. Once cooled to ˜50° C. the 2×GC Agar Base and 2× Hemoglobin solutions are combined and 1% IsoVitaleX Enrichment (BD #211876) was added to the solution). Strains were incubated at 36° C. and 5% CO2 to allow growth of colonies, 24 hours before inoculum preparation. 2-fold serial dilutions of test compounds were conducted in a 96 well plate with a final volume of 75 μL per well at 2-fold the final desired concentration in Fastidious broth (Remel #R07664). For preparation of assay inoculum, a direct suspension was prepared by aseptically swabbing 10-15 colonies from agar plates into culture tubes containing 2 mL of fresh sterile saline. After the dilution plates were set up, direct suspensions were then diluted in a cuvette containing sterile saline and the optical density was measured at 600 nm. Inocula were diluted such that 75 μL of this culture in Fastidious broth results in a starting bacterial concentration of 5×10^5 CFU/mL when added to the dilution plates. The plates were incubated for ˜24 hours at 36° C. and 5% CO2.

N. gonorrhoeae WHO G = assay: Liquid broth MIC in Fastidious broth; details: Neisseria gonorrhoeae, read-out: Minimum Inhibitory Concentration (MIC), N. gonorrhoeae WHO G
N. gonorrhoeae WHO Q = assay: Liquid broth MIC in Fastidious broth; details: Neisseria gonorrhoeae, read-out: Minimum Inhibitory Concentration (MIC), N. gonorrhoeae WHO Q

Row | Structure (SMILES) | IC50 [1] [µM] | MIC (P. aeruginosa ATCC 27853) [µg/mL] | MIC (P. aeruginosa CDC-0095) [µg/mL] | MIC (A. baumannii 1258916) [µg/mL] | MIC (A. baumannii CDC-0033) [µg/mL] | MIC (A. baumannii CDC-0036) [µg/mL] | MIC [2] [µg/mL] | MIC (P. aeruginosa CDC-0110) [µg/mL] | MIC (N. gonorrhoeae MS11) [µg/mL] | MIC (N. gonorrhoeae WHO G) [µg/mL] | MIC (N. gonorrhoeae WHO Q) [µg/mL]
1 | O=C(NCCCN1CCN(C(=O)NC(C(=O)N[C@H]2Cc3ccc(F)c(C(=O)O)c3OB2O)c2cc(F)c(O)c(O)c2Cl)C(=O)C1=O)Nc1cccc(O)c1 (stereo partly drawn) [Example 206, (3R)-3-(2-(2-chloro-5-fluoro-3,4-dihydroxyphenyl)-2-(4-(3-(3-(3-hydroxyphenyl)ureido)propyl)-2,3-dioxopiperazine-1-carboxamido)acetamido)-7-fluoro-2-hydroxy-3,4-dihydro-2H-benzo[e][1,2]oxaborinine-8-carboxylic acid] | < 10 | 2 to 4 (≈ 2.58 to 5.16 µM) | < 1 | < 1 | 2 to 4 (≈ 2.58 to 5.16 µM) | < 1 | 2 to 4 (≈ 2.58 to 5.16 µM) | < 1 | 16 to 32 (≈ 20.6 to 41.3 µM) | 4 to 8 (≈ 5.16 to 10.3 µM) | 16 to 32 (≈ 20.6 to 41.3 µM)
2 | O=C(NCCN1CCN(C(=O)NC(C(=O)N[C@H]2Cc3ccc(F)c(C(=O)O)c3OB2O)c2cc(F)c(O)c(O)c2Cl)C(=O)C1=O)c1ccccc1 (stereo partly drawn) [Example 207, (3R)-3-(2-(4-(2-benzamidoethyl)-2,3-dioxopiperazine-1-carboxamido)-2-(2-chloro-5-fluoro-3,4-dihydroxyphenyl)acetamido)-7-fluoro-2-hydroxy-3,4-dihydro-2H-benzo[e][1,2]oxaborinine-8-carboxylic acid] | < 10 | 2 to 4 (≈ 2.74 to 5.48 µM) | 2 to 4 (≈ 2.74 to 5.48 µM) | 2 to 4 (≈ 2.74 to 5.48 µM) | 8 to 16 (≈ 11 to 21.9 µM) | 8 to 16 (≈ 11 to 21.9 µM) | 8 to 16 (≈ 11 to 21.9 µM) | < 1 | 16 to 32 (≈ 21.9 to 43.8 µM) | 16 to 32 (≈ 21.9 to 43.8 µM) | 16 to 32 (≈ 21.9 to 43.8 µM)
3 | CN(CCN1CCN(C(=O)N[C@@H](C(=O)N[C@H]2Cc3ccc(F)c(C(=O)O)c3OB2O)c2cc(F)c(O)c(O)c2Cl)C(=O)C1=O)Cc1cncc(O)c1 [Example 208, (R)-3-((R)-2-(2-chloro-5-fluoro-3,4-dihydroxyphenyl)-2-(4-(2-(((5-hydroxypyridin-3-yl)methyl)(methyl)amino)ethyl)-2,3-dioxopiperazine-1-carboxamido)acetamido)-7-fluoro-2-hydroxy-3,4-dihydro-2H-benzo[e][1,2]oxaborinine-8-carboxylic acid] | < 10 | < 1 | < 1 | < 1 | 2 to 4 (≈ 2.68 to 5.36 µM) | 2 to 4 (≈ 2.68 to 5.36 µM) | < 1 | < 1 | 4 to 8 (≈ 5.36 to 10.7 µM) | 4 to 8 (≈ 5.36 to 10.7 µM) | 16 to 32 (≈ 21.4 to 42.8 µM)
4 | CN(CCN1CCN(C(=O)N[C@@H](C(=O)N[C@H]2Cc3ccc(F)c(C(=O)O)c3OB2O)c2cc(F)c(O)c(O)c2Cl)C(=O)C1=O)Cc1ccc(N)nc1 [Example 209, (R)-3-((R)-2-(4-(2-(((6-aminopyridin-3-yl)methyl)(methyl)amino)ethyl)-2,3-dioxopiperazine-1-carboxamido)-2-(2-chloro-5-fluoro-3,4-dihydroxyphenyl)acetamido)-7-fluoro-2-hydroxy-3,4-dihydro-2H-benzo[e][1,2]oxaborinine-8-carboxylic acid] | < 10 | < 1 | < 1 | < 1 | 2 to 4 (≈ 2.68 to 5.36 µM) | 2 to 4 (≈ 2.68 to 5.36 µM) | < 1 | < 1 | 4 to 8 (≈ 5.36 to 10.7 µM) | 4 to 8 (≈ 5.36 to 10.7 µM) | 16 to 32 (≈ 21.5 to 42.9 µM)
5 | O=C(NCCCN1CCN(C(=O)N[C@@H](C(=O)N[C@H]2Cc3ccc(F)c(C(=O)O)c3OB2O)c2cc(F)c(O)c(O)c2Cl)C(=O)C1=O)c1cccnc1 [Example 210, (R)-3-((R)-2-(2-chloro-5-fluoro-3,4-dihydroxyphenyl)-2-(4-(3-(nicotinamido)propyl)-2,3-dioxopiperazine-1-carboxamido)acetamido)-7-fluoro-2-hydroxy-3,4-dihydro-2H-benzo[e][1,2]oxaborinine-8-carboxylic acid] | < 10 | 2 to 4 (≈ 2.69 to 5.37 µM) | < 1 | < 1 | 8 to 16 (≈ 10.7 to 21.5 µM) | 2 to 4 (≈ 2.69 to 5.37 µM) | < 1 | < 1 | 16 to 32 (≈ 21.5 to 43 µM) | 4 to 8 (≈ 5.37 to 10.7 µM) | > 64
6 | O=C(NCCCN1CCN(C(=O)NC(C(=O)N[C@H]2Cc3ccc(F)c(C(=O)O)c3OB2O)c2cc(F)c(O)c(O)c2Cl)C(=O)C1=O)c1nccs1 (stereo partly drawn) [Example 211, (3R)-3-(2-(2-chloro-5-fluoro-3,4-dihydroxyphenyl)-2-(2,3-dioxo-4-(3-(thiazole-2-carboxamido)propyl)piperazine-1-carboxamido)acetamido)-7-fluoro-2-hydroxy-3,4-dihydro-2H-benzo[e][1,2]oxaborinine-8-carboxylic acid] | < 10 | 2 to 4 (≈ 2.66 to 5.33 µM) | 2 to 4 (≈ 2.66 to 5.33 µM) | < 1 | 2 to 4 (≈ 2.66 to 5.33 µM) | 2 to 4 (≈ 2.66 to 5.33 µM) | 2 to 4 (≈ 2.66 to 5.33 µM) | < 1 | 16 to 32 (≈ 21.3 to 42.6 µM) | 16 to 32 (≈ 21.3 to 42.6 µM) | > 64
7 | O=C(O)c1c(F)ccc2c1OB(O)[C@@H](NC(=O)C(NC(=O)N1CCN(CCCNC(=O)[C@@H]3CCCN3)C(=O)C1=O)c1cc(F)c(O)c(O)c1Cl)C2 (stereo partly drawn) [Example 212, (3R)-3-(2-(2-chloro-5-fluoro-3,4-dihydroxyphenyl)-2-(2,3-dioxo-4-(3-((S)-pyrrolidine-2-carboxamido)propyl)piperazine-1-carboxamido)acetamido)-7-fluoro-2-hydroxy-3,4-dihydro-2H-benzo[e][1,2]oxaborinine-8-carboxylic acid] | < 10 | 2 to 4 (≈ 2.71 to 5.43 µM) | 2 to 4 (≈ 2.71 to 5.43 µM) | 2 to 4 (≈ 2.71 to 5.43 µM) | 8 to 16 (≈ 10.9 to 21.7 µM) | 8 to 16 (≈ 10.9 to 21.7 µM) | 2 to 4 (≈ 2.71 to 5.43 µM) | < 1 | 16 to 32 (≈ 21.7 to 43.4 µM) | 16 to 32 (≈ 21.7 to 43.4 µM) | > 64
8 | O=C(NCCCN1CCN(C(=O)NC(C(=O)N[C@H]2Cc3ccc(F)c(C(=O)O)c3OB2O)c2cc(F)c(O)c(O)c2Cl)C(=O)C1=O)Nc1cccnc1 (stereo partly drawn) [Example 213, (3R)-3-(2-(2-chloro-5-fluoro-3,4-dihydroxyphenyl)-2-(2,3-dioxo-4-(3-(3-(pyridin-3-yl)ureido)propyl)piperazine-1-carboxamido)acetamido)-7-fluoro-2-hydroxy-3,4-dihydro-2H-benzo[e][1,2]oxaborinine-8-carboxylic acid] | < 10 | 2 to 4 (≈ 2.63 to 5.26 µM) | < 1 | < 1 | 8 to 16 (≈ 10.5 to 21.1 µM) | 2 to 4 (≈ 2.63 to 5.26 µM) | 2 to 4 (≈ 2.63 to 5.26 µM) | < 1 | 16 to 32 (≈ 21.1 to 42.1 µM) | 16 to 32 (≈ 21.1 to 42.1 µM) | > 64
